Where two headings read alike, the source gives them in different places.
Assays:
[1] = tested on: UM-UC-9 engineered cells; experiment: Cell proliferation / short-term viability assay, CellTiter-Glo 144 h; type: cell-based, human; conditions: read-out: CTGlo 144 h UMUC9.5, G150
Method: Cell Seeding for Proliferation Assay
UM-UC-9 engineered cells were cultured in Dulbecco's Modified Eagle Medium (DMEM) supplemented with 10% FBS, 25 mM glucose (high glucose), 4.0 mM L-glutamine, 2.0 mM GlutaMAX™, 1.0 mM pyruvate, 1.0% non-essential amino acids (NEAA) in a 95% humidified incubator at 37° C. with 5% CO2. Cell banks of UM-UC-9 engineered assay-ready cells (ARCs) were prepared from a very active growth stage. Vials of ARCs containing approximately 5×10^6 cells per vial were stored in liquid nitrogen vapor phase cryostorage until use.
For making assay plates, ARCs were recovered from cryostorage, strained in a […] cell strainer, verified for cell viability >90% and counted using a cell counter (Cellometer Auto 1000, Nexelom). Each cell line was seeded into 384-well plates (50 μl/well) using DMEM medium at a density previously determined to be in log growth phase 7 days post-seeding (500 cells/well) using a bulk reagent dispenser (Multidrop™ Combi, Thermo Scientific) with a large-bore plastic-tip cassette pre-sanitized with 70% ethanol. One plate of cells was designated as the pretreatment time-zero (T0) control. Freshly seeded plates were allowed to sit lidded for 30 minutes within a biosafety cabinet for cells to settle distributed within the plate wells uniformly and then placed into an automated incubator (STX110, Liconic) at 37° C., 5% CO2, and 95% relative humidity.
Preparation of Test Compound in Assay-Ready Plate
Compounds were stored in a low-temperature sample archive as 10 mM dimethyl sulfoxide (DMSO) solutions at −20° C. under reduced humidity (−45° C. dew point) and protected from light. All samples in the automated archive are stored in 2D barcoded polypropylene tubes, tracked through a laboratory information management system (LIMS), and have been verified for identity and purity by NMR (Chemistry, H3 Biomedicine) and by LCMS (Analytical Chemistry, H3 Biomedicine) at the time of sample registration. Identity by mass matching and purity are again verified at the time of sample request fulfillment by redundant LCMS methods (acidic and basic separation protocols; Analytical Chemistry, H3 Biomedicine). Samples retrieved from low-temperature archive storage were solubilized by heated sonication (Bransonic® Ultrasonic Bath, Branson), transferred (Microlab Starlet, Hamilton) and serially-diluted (Viaflo Assist, Integra) by low-volume liquid handlers, and tracked in LIMS by automation log files to create a ID barcoded master dose-response plate (MDR) to serve as a standard source for all assay-ready plates (ARP) used within an experiment. ARPs prepared by acoustic transfer (ATS-100, EDC) of nL volumes from the MDR source were heat-sealed (PlateLoc, Agilent) and stored at −20° C. prior to use (<7 days from production). Tracking of liquid transfers via acoustic dispenser log files were used to update the LIMS system for all ARP plate maps.
Measurement of Pretreatment Control Cells and Sample Anti-Proliferative Effects on Treated Cells
On day 0 (pretreatment cells) or day 7 (treated cells), a cell proliferation assay was performed using an automated robotic assay platform (ACell, High-Res Biosolutions). Cell ARP's were removed from incubation, their plate lid discarded, and using a bulk reagent dispenser (Multidrop™ Combi, Thermo Scientific with a small-bore metal-tip cassette) 25 μL (1/2 volume) of Cell Titer-Glo® 2.0 Cell Viability Assay reagent (Promega) was added to wells of columns 1-23 (column 24 will be used as plate background or positive control). Cell ARP's were incubated at room temperature in an automation hotel position for a total of 1.0 minute while the next plate was delivered to the bulk reagent dispenser and then lid-free cell ARP's were returned to incubate at 37° C. for 2.5 hours. […]

[2] = molecular target: T1, His6-TEV-PPARγ-(234-505) (Homo sapiens, UniProt P37231); experiment: TR-FRET Assay to Measure Co-R Peptide Recruitment to PPARγ; type: biochemical
T1 construct: The His6-TEV-PPARγ-(234-505) protein for assay was expressed and purified; TEV cleavage site (N); made in house
T1 sequence (P37231 234-505): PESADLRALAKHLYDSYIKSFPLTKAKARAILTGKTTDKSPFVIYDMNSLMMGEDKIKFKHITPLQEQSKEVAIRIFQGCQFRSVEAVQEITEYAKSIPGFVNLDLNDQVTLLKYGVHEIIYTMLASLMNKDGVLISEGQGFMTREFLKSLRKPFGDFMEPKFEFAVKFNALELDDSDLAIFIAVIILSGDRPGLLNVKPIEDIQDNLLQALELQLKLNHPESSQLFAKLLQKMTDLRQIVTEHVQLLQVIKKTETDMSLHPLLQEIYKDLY
In short: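 His-tagged PPARγ (or controls) was preincubated with compound for 20 minutes at room temperature, then 5 nM anti-His terbium antibody and 200 nM FITC-labeled SMRT-ID2 corepressor peptide (final) were added for a further hour. TR-FRET signal was normalized to percent response using 500 nM T0070907 and DMSO controls.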

[3] = Co-R peptide (SMRT-ID2) recruitment, top final concentration 20 μM, read-out: TR-FRET i-Ag, AC50
[4] = Co-R peptide recruitment to PPARγ, read-out: TR-FRET AC50

| SMILES | IC50 ([1]; Homo sapiens, UM-UC-9, 144 h) [nM] | AC50 [2, 4] [nM] | further results |
| --- | --- | --- | --- |
| COc1cc(-c2cc(C(=O)N3CCC(C(=O)NC4CCC(C)CC4)CC3)n[nH]2)c(Cl)cn1 (mixture of isomers) [Example 101, 1-(5-(5-chloro-2-methoxypyridin-4-yl)-1H-pyrazole-3-carbonyl)-N-((1s,4s)-4-methylcyclohexyl)piperidine-4-carboxamide and 1-(5-(5-chloro-2-methoxypyridin-4-yl)-1H-pyrazole-3-carbonyl)-N-((1r,4r)-4-methylcyclohexyl)piperidine-4-carboxamide] | – | – | IC50 [1]: 305 nM; AC50 [2, 3]: 29.4 nM |
| COc1cc(-c2[nH]nc(C(=O)N3CCC(C(=O)NC4CCC(C)CC4)CC3)c2F)ccn1 (mixture of isomers) [Example 102] | 643 | – | AC50 [2, 3]: 321 nM |
| COc1cc(-c2cc(C(=O)N3CCC(C(=O)NC4CCC(C)CC4)CC3)n[nH]2)ccn1 (mixture of isomers) [Example 105, 1-(5-(2-methoxypyridin-4-yl)-1H-pyrazole-3-carbonyl)-N-(4-methylcyclohexyl)piperidine-4-carboxamide] | 1020 | – | AC50 [2, 3]: 537 nM |
| COc1cc(-c2[nH]nc(C(=O)N3CCC(C(=O)NC4CCC(C)CC4)CC3)c2Cl)ccn1 (mixture of isomers) [Example 110, 1-[4-chloro-5-(2-methoxypyridin-4-yl)-1H-pyrazole-3-carbonyl]-N-[(1s,4s)-4-methylcyclohexyl]piperidine-4-carboxamide and 1-[4-chloro-5-(2-methoxypyridin-4-yl)-1H-pyrazole-3-carbonyl]-N-[(1r,4r)-4-methylcyclohexyl]piperidine-4-carboxamide] | – | – | IC50 [1]: 1210 nM; AC50 [2, 3]: 575 nM |
| COc1cc(-c2cc(C(=O)N3CCC(C(=O)NC4CCC(C)CC4)CC3)n[nH]2)c(F)cn1 (mixture of isomers) [Example 114, 1-(5-(5-fluoro-2-methoxypyridin-4-yl)-1H-pyrazole-3-carbonyl)-N-((1s,4s)-4-methylcyclohexyl)piperidine-4-carboxamide and 1-(5-(5-fluoro-2-methoxypyridin-4-yl)-1H-pyrazole-3-carbonyl)-N-((1r,4r)-4-methylcyclohexyl)piperidine-4-carboxamide] | – | – | IC50 [1]: 120 nM; AC50 [2, 3]: 78.5 nM |
| COc1cc(-c2cc(C(=O)N3CCC(C(=O)NC4CCC(C(F)(F)F)CC4)CC3)n[nH]2)c(Cl)cn1 (mixture of isomers) [Example 118, 1-[5-(5-chloro-2-methoxypyridin-4-yl)-1H-pyrazole-3-carbonyl]-N-[(1s,4s)-4-(trifluoromethyl)cyclohexyl]piperidine-4-carboxamide and 1-[5-(5-chloro-2-methoxypyridin-4-yl)-1H-pyrazole-3-carbonyl]-N-[(1r,4r)-4-(trifluoromethyl)cyclohexyl]piperidine-4-carboxamide] | – | – | IC50 [1]: 121 nM |
| COc1cc(-c2cc(C(=O)N3CCC(C(=O)NC(C)c4cccc(Cl)c4)CC3)n[nH]2)c(Cl)cn1 (racemic) [Example 115, (R)-1-[5-(5-chloro-2-methoxypyridin-4-yl)-1H-pyrazole-3-carbonyl]-N-[1-(3-chlorophenyl)ethyl]piperidine-4-carboxamide and (S)-1-[5-(5-chloro-2-methoxypyridin-4-yl)-1H-pyrazole-3-carbonyl]-N-[1-(3-chlorophenyl)ethyl]piperidine-4-carboxamide] | – | – | IC50 [1]: 428 nM |
| COc1cc(-c2cc(C(=O)N3CCC(C(=O)NC4CCC(C)CC4)CC3)n[nH]2)c(Cl)cn1 (single isomer, unassigned) [Example 101-A] | – | – | IC50 ([1]; listed as 101a): > 10000 nM |
| COc1cc(-c2cc(C(=O)N3[C@@H]4CC[C@H]3C[C@H](C(=O)NC3CCC(C#N)(C(F)(F)F)CC3)C4)n[nH]2)c(F)cn1 (stereo partly drawn) [Example 438, (1R,3s,5S)—N-(4-cyano-4-(trifluoromethyl)cyclohexyl)-8-(5-(5-fluoro-2-methoxypyridin-4-yl)-1H-pyrazole-3-carbonyl)-8-azabicyclo[3.2.1]octane-3-carboxamide] | 1150 | – | – |
| COc1cc(-c2cc(C(=O)N3CC[C@H](C(=O)NCc4nc(C)cnc4Cl)CC34CC4)n[nH]2)c(F)cn1 [Example 451, (S)—N-((3-chloro-6-methylpyrazin-2-yl)methyl)-4-(5-(5-fluoro-2-methoxypyridin-4-yl)-1H-pyrazole-3-carbonyl)-4-azaspiro[2.5]octane-7-carboxamide] | 9.6 | – | – |
| COc1cc(-c2cc(C(=O)N3CC[C@H](C(=O)NCc4ncc(C#N)cn4)CC34CC4)n[nH]2)c(F)cn1 [Example 456, (S)—N-((5-cyanopyrimidin-2-yl)methyl)-4-(5-(5-fluoro-2-methoxypyridin-4-yl)-1H-pyrazole-3-carbonyl)-4-azaspiro[2.5]octane-7-carboxamide] | 312 | – | – |
| COc1cnc(CNC(=O)[C@H]2CCN(C(=O)c3cc(-c4cc(OC)ncc4F)[nH]n3)C3(CC3)C2)c(C(F)(F)F)c1 [Example 527, (S)-4-(5-(5-fluoro-2-methoxypyridin-4-yl)-1H-pyrazole-3-carbonyl)-N-((5-methoxy-3-(trifluoromethyl)pyridin-2-yl)methyl)-4-azaspiro[2.5]octane-7-carboxamide] | 5 | – | – |
| CC(C)CN(C)C(=O)C1CCN(C(=O)c2cc(-c3ccncc3)[nH]n2)CC1 [N-methyl-N-(2-methylpropyl)-1-[5-(pyridin-4-yl)-1H-pyrazole-3-carbonyl]piperidine-4-carboxamide] | – | > 1000 | – |
| CCCN(C)C(=O)C1CCN(C(=O)c2cc(-c3ccncc3)[nH]n2)CC1 [N-methyl-N-propyl-1-[5-(pyridin-4-yl)-1H-pyrazole-3-carbonyl]piperidine-4-carboxamide] | – | > 1000 | – |
| O=C(Nc1ccccc1)C1CCN(C(=O)c2cc(-c3ccncc3)[nH]n2)CC1 [N-phenyl-1-[5-(pyridin-4-yl)-1H-pyrazole-3-carbonyl]piperidine-4-carboxamide] | – | > 1000 | – |
| CC(C)(C)Oc1ccc(CNC(=O)C2CCN(C(=O)c3cc(-c4ccncc4)[nH]n3)CC2)cc1 [N-{[4-(tert-butoxy)phenyl]methyl}-1-[5-(pyridin-4-yl)-1H-pyrazole-3-carbonyl]piperidine-4-carboxamide] | – | > 1000 | – |
| COc1cc(-c2cc(C(=O)N3CCC(C(=O)NC45CC(C4)C5)CC3)n[nH]2)c(Cl)cn1 [N-{bicyclo[1.1.1]pentan-1-yl}-1-[5-(5-chloro-2-methoxypyridin-4-yl)-1H-pyrazole-3-carbonyl]piperidine-4-carboxamide] | – | > 1000 | – |
| O=C(c1cc(-c2ccncc2)[nH]n1)N1CCC(C(=O)N2CCC[C@H]2CO)CC1 [[(2S)-1-{1-[5-(pyridin-4-yl)-1H-pyrazole-3-carbonyl]piperidine-4-carbonyl}pyrrolidin-2-yl]methanol] | – | > 1000 | – |

From patent US12606541B2, “PPARg modulators and methods of use” (Eisai R&D Management Co., Ltd., priority 2020, dated 2026)
